Experimental data reported in publication PMC3469822, “ATP-Driven Remodeling of the Linker Domain in the Dynein Motor” (Structure(London, England:1993), 2012).

Key:
[1] = target: T1, cytoplasmic dynein motor domain (380 kDa) (Dictyostelium discoideum, UniProt P34036, E2027Q); test: cryo-EM reconstruction of head, […] Å; format: binding; conditions: 1 mM ATP, 4 mM MgSO4, pH 7.0; AAA1 Walker B mutant that binds but does not hydrolyse ATP; ligand itself not resolved
T1 construct: gene dhcA; tail-less motor domain V1388-I4730, N-terminal His6 and FLAG tags, 380 kDa
T1 sequence (P34036 1388-4730 E2027Q): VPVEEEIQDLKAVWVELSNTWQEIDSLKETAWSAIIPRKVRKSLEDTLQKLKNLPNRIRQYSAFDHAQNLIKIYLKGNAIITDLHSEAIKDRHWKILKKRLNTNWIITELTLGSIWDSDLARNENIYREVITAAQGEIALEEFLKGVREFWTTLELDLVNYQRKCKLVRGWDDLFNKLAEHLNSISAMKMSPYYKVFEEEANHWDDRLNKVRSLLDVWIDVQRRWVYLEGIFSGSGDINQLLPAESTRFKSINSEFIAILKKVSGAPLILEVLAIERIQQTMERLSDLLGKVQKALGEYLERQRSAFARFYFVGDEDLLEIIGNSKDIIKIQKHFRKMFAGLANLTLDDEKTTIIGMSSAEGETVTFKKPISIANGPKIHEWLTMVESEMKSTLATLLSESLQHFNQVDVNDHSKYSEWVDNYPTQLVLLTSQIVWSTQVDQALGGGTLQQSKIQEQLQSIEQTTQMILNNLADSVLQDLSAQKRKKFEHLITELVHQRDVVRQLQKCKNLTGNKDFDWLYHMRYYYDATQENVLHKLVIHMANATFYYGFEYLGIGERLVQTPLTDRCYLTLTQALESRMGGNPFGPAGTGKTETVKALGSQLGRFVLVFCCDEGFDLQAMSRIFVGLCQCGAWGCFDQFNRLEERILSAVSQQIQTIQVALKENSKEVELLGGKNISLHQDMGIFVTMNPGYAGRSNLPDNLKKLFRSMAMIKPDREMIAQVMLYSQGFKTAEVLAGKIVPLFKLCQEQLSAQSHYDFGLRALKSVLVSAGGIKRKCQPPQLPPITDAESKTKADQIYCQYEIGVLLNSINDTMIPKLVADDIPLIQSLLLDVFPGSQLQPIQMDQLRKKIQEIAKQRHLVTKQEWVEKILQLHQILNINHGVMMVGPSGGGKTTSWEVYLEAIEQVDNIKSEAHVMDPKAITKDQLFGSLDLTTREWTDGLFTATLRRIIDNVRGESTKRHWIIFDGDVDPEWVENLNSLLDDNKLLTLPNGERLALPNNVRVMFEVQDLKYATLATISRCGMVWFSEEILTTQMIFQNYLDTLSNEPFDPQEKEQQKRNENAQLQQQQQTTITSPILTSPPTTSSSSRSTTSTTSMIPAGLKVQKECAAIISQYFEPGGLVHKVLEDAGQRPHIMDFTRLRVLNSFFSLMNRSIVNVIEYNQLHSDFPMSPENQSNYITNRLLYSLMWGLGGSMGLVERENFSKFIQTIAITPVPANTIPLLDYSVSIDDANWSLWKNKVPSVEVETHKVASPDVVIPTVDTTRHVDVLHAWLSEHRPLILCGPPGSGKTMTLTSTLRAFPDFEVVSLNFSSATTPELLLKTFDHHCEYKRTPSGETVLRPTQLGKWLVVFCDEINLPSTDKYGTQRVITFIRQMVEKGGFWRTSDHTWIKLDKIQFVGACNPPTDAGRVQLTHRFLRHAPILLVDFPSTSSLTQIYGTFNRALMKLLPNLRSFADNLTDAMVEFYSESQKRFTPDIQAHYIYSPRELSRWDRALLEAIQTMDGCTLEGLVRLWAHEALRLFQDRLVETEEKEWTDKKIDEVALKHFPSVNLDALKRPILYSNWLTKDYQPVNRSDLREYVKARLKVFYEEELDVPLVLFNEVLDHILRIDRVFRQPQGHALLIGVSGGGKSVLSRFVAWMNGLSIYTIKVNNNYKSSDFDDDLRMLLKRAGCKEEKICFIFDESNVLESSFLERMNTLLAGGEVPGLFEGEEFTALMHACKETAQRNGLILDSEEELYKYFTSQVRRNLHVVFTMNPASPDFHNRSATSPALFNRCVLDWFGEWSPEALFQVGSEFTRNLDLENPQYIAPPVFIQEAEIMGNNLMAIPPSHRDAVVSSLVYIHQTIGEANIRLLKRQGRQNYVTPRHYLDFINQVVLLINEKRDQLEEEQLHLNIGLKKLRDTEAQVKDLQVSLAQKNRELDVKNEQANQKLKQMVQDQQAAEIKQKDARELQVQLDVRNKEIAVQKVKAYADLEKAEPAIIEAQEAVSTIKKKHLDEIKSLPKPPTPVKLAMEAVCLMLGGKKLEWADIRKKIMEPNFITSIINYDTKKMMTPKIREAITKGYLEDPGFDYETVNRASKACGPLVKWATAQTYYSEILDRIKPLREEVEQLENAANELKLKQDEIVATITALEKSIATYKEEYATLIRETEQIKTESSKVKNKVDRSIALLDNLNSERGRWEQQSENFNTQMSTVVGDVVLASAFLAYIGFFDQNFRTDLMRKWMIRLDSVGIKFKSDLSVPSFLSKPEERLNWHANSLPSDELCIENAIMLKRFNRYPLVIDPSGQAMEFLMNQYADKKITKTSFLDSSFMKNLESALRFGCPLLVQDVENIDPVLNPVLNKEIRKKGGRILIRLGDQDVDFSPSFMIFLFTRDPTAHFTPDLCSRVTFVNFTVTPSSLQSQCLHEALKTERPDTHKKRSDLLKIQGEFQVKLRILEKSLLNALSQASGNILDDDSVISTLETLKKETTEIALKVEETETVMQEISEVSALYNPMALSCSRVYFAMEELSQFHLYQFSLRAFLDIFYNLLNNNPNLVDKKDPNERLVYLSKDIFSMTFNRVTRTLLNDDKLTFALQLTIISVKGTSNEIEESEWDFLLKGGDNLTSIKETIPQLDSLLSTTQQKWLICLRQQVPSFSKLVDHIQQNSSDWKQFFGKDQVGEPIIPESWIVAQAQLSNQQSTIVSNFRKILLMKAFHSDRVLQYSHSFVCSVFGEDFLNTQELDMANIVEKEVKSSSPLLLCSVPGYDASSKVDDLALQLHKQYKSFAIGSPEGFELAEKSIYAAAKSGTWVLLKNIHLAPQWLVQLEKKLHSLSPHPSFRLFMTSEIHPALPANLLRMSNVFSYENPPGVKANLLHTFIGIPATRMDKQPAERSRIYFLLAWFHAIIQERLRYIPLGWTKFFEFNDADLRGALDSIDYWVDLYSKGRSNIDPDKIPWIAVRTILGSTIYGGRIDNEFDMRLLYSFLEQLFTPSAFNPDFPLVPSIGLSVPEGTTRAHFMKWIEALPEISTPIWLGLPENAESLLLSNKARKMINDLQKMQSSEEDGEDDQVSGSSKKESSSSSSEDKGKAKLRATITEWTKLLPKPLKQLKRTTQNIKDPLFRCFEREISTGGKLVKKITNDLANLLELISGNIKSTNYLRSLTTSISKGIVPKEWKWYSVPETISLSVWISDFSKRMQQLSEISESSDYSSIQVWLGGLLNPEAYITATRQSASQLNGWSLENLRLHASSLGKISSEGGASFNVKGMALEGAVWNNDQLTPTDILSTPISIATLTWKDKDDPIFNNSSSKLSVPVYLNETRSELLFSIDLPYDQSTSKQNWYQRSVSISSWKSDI

[2] = target: T2, cytoplasmic dynein motor domain (380 kDa) (Dictyostelium discoideum, UniProt P34036); test: cryo-EM reconstruction of head, […] Å; format: binding; conditions: 1 mM ADP, 4 mM MgSO4, pH 7.0; ligand itself not resolved
T2 construct: gene dhcA; tail-less motor domain V1388-I4730, N-terminal His6 and FLAG tags, 380 kDa
T2 sequence (P34036 1388-4730): as the sequence (P34036 1388-4730 E2027Q) above, with Q640E counted along it

SMILES: Nc1ncnc2c1ncn2[C@@H]1O[C@H](COP(=O)(O)OP(=O)(O)OP(=O)(O)O)[C@@H](O)[C@H]1O [ATP]
- cryo-EM reconstruction of head, 25 Å [1]: cytoplasmic dynein head, bearing a E2027Q substitution, in the ATP state

SMILES: Nc1ncnc2c1ncn2[C@@H]1O[C@H](COP(=O)(O)OP(=O)(O)O)[C@@H](O)[C@H]1O [ADP]
- cryo-EM reconstruction of head, 23 Å [2]: Cryo-EM reconstruction of the head domain of cytoplasmic dynein in the presence of ADP
